Paper PMC9353477, “A Functional Screening Identifies a New Organic Selenium Compound Targeting Cancer Stem Cells: Role of c‐Myc Transcription Activity Inhibition in Liver Cancer” (Advanced Science, 2022)

Tests used:
[1] = in vitro; details: human, l02 cells
Description: (§1) The L02 and Hep3B cells were seeded in 96‐well plates (5000 cells per well), 24 h later, the cells were treated with DMSO (Control group) or each small molecule compound (10 µM) for another 48 h. Then cells were treated with CCK‐8 reagent (Dojindo Laboratories, Kumamoto, Japan) and incubated at 37 °C for 2 h. Absorbance at 450 nm was measured by SpectraMax M2e (Molecular devices, San Jose, CA). Five replicate wells for each group and three independent experiments were conducted. The cell viability (%) of each small molecule compound was normalized as the ratio of each compound/DMSO in L02 and Hep3B cells, respectively. The relative cell viability (%) = The cell viability of L02 cells (%) − The cell viability of Hep3B cells (%). […] Given that the common concentration used in in vitro drug screening is 10 µM,^[ [24] ^] therefore, in the three rounds of drug screening, all small molecules are 10 µM. […] A) Flowchart of functional screening. B) Scattered plot showing the cell viability of each small molecule in human normal fetal liver cell L02 and liver cancer Hep3B cells, 48 h after treatment with each compound (10 µM). […] C) Images and statistical histogram of 3D tumor spheroids from Hep3B (cultured for 5 days, followed by treated with 16 candidate compounds (10 µM) for another 3 days). Tumor spheroid was quantified as the total cross‐sectional area of spheroid in each group (area mean), n = 3, Means ± SD, ^* p < 0.05, ^** p < 0.01, Student's t‐test. D) Statistical histogram of the CD13^+CD133^+ population, 48 h after treatment with each candidate compound (10 µM), analyzed by FCM, n = 3, Means ± SD; ^* p < 0.05, ^** p < 0.01; Student's t‐test. E) Representative images of tumorspheres from HCC cells that received a 48‐h pretreatment with each candidate compound (10 µM) before tumorsphere culture. Bars, 1000 µm. Tumorspheres were quantified as the total cross‐sectional area of tumorspheres in each group (area sum), and similarly hereafter unless indicated. Statistical histogram of the tumorsphere size. n = 3, means ± SD, each compound compared with DMSO, ^* p < 0.05, ^** p < 0.01, Student's t‐test. F) Heat maps of functional screening results, shown by the relative value of CD13^+CD133^+ population (D) and tumorsphere size (E), with normalizing the vehicle group as 100%. CU27 chemical structure is shown in the right.

[2] = tested on: Hep3B; assay: cells; details: 48 h; for viability at 10 µM: Homo sapiens, Hep3B, read-out: Cell viability of Hep3B (Mean of Hep3B/DMSO) (%)
Description: as §1

[3] = molecular target: T1, truncated c-Myc protein (a.a 354-437) (Homo sapiens, UniProt P01106); assay: SPR (Biacore S200, CM5 chip); format: binding
T1 construct: bHLH/LZ domain fragment, residues 354-437; purified by DEAE ion exchange; coupled to CM5 chip; no Max present
T1 sequence (P01106 369-452): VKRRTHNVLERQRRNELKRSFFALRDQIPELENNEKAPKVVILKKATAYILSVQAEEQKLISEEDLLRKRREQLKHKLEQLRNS

SMILES	viability at 48 h, 10 µM [1] [%]	viability at 10 µM [2] [%]	Kd [3] [nM]	Cell viability of Hep3B (Mean of Hep3B/DMSO) (%) ([2]; [mut] cells, 10 µM)
CCn1c(-c2nonc2N)nc2c(C#CC(C)(C)O)ncc(OC[C@H]3CCCNC3)c21 [GSK690693]	49.3	63.8	–	–
C=CCNC(=[Se])NN=C(c1ccccc1)c1ncccn1 [4a, Phenyl‐2‐pyrimidinyl ketone 4‐allyl‐3‐amino selenourea]	79.4	–	0.562	–
CCn1c(=O)c(-c2cc[nH]n2)cc2c(C)nc(N)nc21 [Voxtalisib]	26.9	23.1	–	–
COc1ccc(COc2cc3oc(=O)c4cc(C(C)O)ccc4c3cc2OC)cc1 (stereo not drawn) [Palomid529]	58.1	62.4	–	–
CC(C)n1nc(-c2cc3cc(O)ccc3[nH]2)c2c(N)ncnc21 [Torkinib]	–	44.8	–	–
O=C1NC(=O)/C(=C/c2ccc3nccc(-c4ccncc4)c3c2)S1 [GSK1059615]	13.5	17.9	–	–
NC1(Cc2ccc(Cl)cc2)CCN(c2ncnc3[nH]ccc23)CC1 [CCT128930]	–	34.4	–	–
Cc1c(CN2CCN(C(=O)[C@H](C)O)CC2)sc2c(N3CCOCC3)nc(-c3cnc(N)nc3)nc12 [Apitolisib]	37.1	29.4	–	–
O=C1NCCc2[nH]c(-c3ccncc3)cc21 [PHA-767491]	22.2	–	–	–
Cc1[nH]nc2ccc(-c3cncc(OC[C@@H](N)Cc4ccccc4)c3)cc12 [A-674563]	–	21.7	–	–
Cn1c(=O)n(-c2ccc(C(C)(C)C#N)cc2)c2c3cc(-c4cnc5ccccc5c4)ccc3ncc21 [Dactolisib]	27.2	–	–	21.03
O=S(=O)(NCCNC/C=C/c1ccc(Br)cc1)c1cccc2cnccc12 [H89 2HCL]	–	57	–	–
CNC(=O)Nc1ccc(-c2nc(N3CC4CCC(C3)O4)c3cnn(C4CCC5(CC4)OCCO5)c3n2)cc1 [WYE-125132]	45.1	27.2	–	–
c1ccc2c(CCNc3ccc(Nc4ccncc4)cc3)c[nH]c2c1 [JNJ26854165]	38	17.7	–	–
CCC(=O)N1CCN(c2ccc(-n3c(=O)ccc4cnc5ccc(-c6cnc7ccccc7c6)cc5c43)cc2C(F)(F)F)CC1 [Torin1]	–	24	–	–
